# Measured values reported in PMC5048338, “Discovery of 4,6-disubstituted pyrimidines as potent inhibitors of the heat shock factor 1 (HSF1) stress pathway and CDK9” (Medchemcomm, 2016).
# What was measured:
# [1] = molecular target: T1, CDK5/p35 (Homo sapiens, UniProt Q00535); test: EMD Millipore (Eurofins) CDK panel; type: biochemical; settings: EMD Millipore screening panel, N = 1
# T1 construct: purchased EMD Millipore screening panel (now Eurofins)
# Procedure: Therefore 4,6-pyrimidine 3 was submitted to a EMD Millipore CDK panel to assess potency across the selected CDK family members (Table 3). Modest activity was observed against several CDKs; […]. […]. page 4:
# (§1) CDK5/p35 (h) is incubated with 8 mM MOPS pH 7.0, 0.2 mM EDTA, 0.1 mg/mL histone H1, 10 mM Mg Acetate and [9-33P]-ATP (specific activity approx. 500 cpm/pmol, concentration as required). The reaction is initiated by the addition of the MgATP mix. After incubation for 40 minutes at room temperature, the reaction is stopped by the addition of 3% phosphoric acid solution. 10 μL of the reaction is then spotted onto a P30 filtermat and washed three times for 5 minutes in 75 mM phosphoric acid and once in methanol prior to drying and scintillation counting. […]
# (§2) , 10 mM MgAcetate and […]
# as §1, with “(specific” for “CDK5/p35 (h) is incubated with 8 mM MOPS pH 7.0, 0.2 mM EDTA, 0.1 mg/mL histone H1, 10 mM Mg Acetate and [9-33P]-ATP (specific”
# [2] = molecular target: T2, CDK6/cyclin D3 (Homo sapiens, UniProt Q00534); test: EMD Millipore (Eurofins) CDK panel; type: biochemical; settings: EMD Millipore screening panel, N = 1
# T2 construct: purchased EMD Millipore screening panel (now Eurofins)
# Procedure: (§3) Therefore 4,6-pyrimidine 3 was submitted to a EMD Millipore CDK panel to assess potency across the selected CDK family members (Table 3). Modest activity was observed against several CDKs; […]. […]. page 4: […]
# as §1, with “mM” for “CDK5/p35 (h) is incubated with 8 mM MOPS pH 7.0, 0.2 mM EDTA, 0.1 mg/mL histone H1, 10 mM”
# as §2
# as §1, with “(specific” for “CDK5/p35 (h) is incubated with 8 mM MOPS pH 7.0, 0.2 mM EDTA, 0.1 mg/mL histone H1, 10 mM Mg Acetate and [9-33P]-ATP (specific”
# [3] = molecular target: T3, CDK7/cyclin H/MAT1 (Homo sapiens, UniProt P50613); test: EMD Millipore (Eurofins) CDK panel; type: biochemical; settings: EMD Millipore screening panel, N = 1
# T3 construct: purchased EMD Millipore screening panel (now Eurofins)
# Procedure: as §3
# as §1, with “mM” for “CDK5/p35 (h) is incubated with 8 mM MOPS pH 7.0, 0.2 mM EDTA, 0.1 mg/mL histone H1, 10 mM”
# as §2
# as §1, with “(specific” for “CDK5/p35 (h) is incubated with 8 mM MOPS pH 7.0, 0.2 mM EDTA, 0.1 mg/mL histone H1, 10 mM Mg Acetate and [9-33P]-ATP (specific”
# [4] = molecular target: T4, CDK9/cyclin T1 (Homo sapiens, UniProt P50750); test: EMD Millipore (Eurofins) CDK panel; type: biochemical
# T4 construct: purchased EMD Millipore screening panel (now Eurofins)
# Procedure: as §3
# as §1, with “mM” for “CDK5/p35 (h) is incubated with 8 mM MOPS pH 7.0, 0.2 mM EDTA, 0.1 mg/mL histone H1, 10 mM”
# CDK9/cyclinT1 (h) is incubated with 8 mM MOPS pH 7.0, 0.2 mM EDTA, 100 μM […]
# as §2
# as §1, with “(specific” for “CDK5/p35 (h) is incubated with 8 mM MOPS pH 7.0, 0.2 mM EDTA, 0.1 mg/mL histone H1, 10 mM Mg Acetate and [9-33P]-ATP (specific”
# [5] = molecular target: T5, CDK2/cyclinE (Homo sapiens, UniProt P24941); test: CDK2 enzyme assay: off-chip mobility shift assay; type: biochemical; set-up: purchased Upstate/Millipore
# Procedure: CDK2 enzyme assay: Off-chip Mobility SHIFT Assay
# All reagents were purchased from Sigma-Aldrich unless otherwise specified. Inhibition of CDK2/cyclinE activity was quantified using an off-chip incubation, mobility shift assay, which uses a microfluidic chip (Caliper Life Sciences) to measure the conversion of a fluorescent peptide substrate to phosphorylated product. An Off-chip Mobility Shift Chip with 12 sippers (Caliper Life Sciences) was prepared for use according to the manufacturer’s instructions using Coating Reagent #3 (Caliper Life Sciences). The off-chip incubation was carried out in white, 384-well, flat bottom, low volume assay plates (Greiner). 5 µL peptide mix (1.5 µM substrate peptide (fluorescein-QSPKKG-CONH2, Bachem) and 90 µM ATP in kinase base buffer (50 mM HEPES, pH7.5 (Calbiochem), 0.06% CHAPSO)) were added to each well of the prepared compound plates which contained 120 nL compound stock solution per well. The reaction was then initiated by the addition of 6 µL enzyme mix (1.0 nM CDK2/cyclin E (Upstate/Millipore), 1.0 mM DTT and 5.0 mM MgCl2 in kinase base buffer). After incubation for 60 min at room temperature, each reaction was terminated by the addition of 10µL of stop solution containing 100 mM HEPES pH 7.5 (Calbiochem), 0.033% Brij-35, 0.22% Coating Reagent #3 (Caliper Life Sciences), 44 mM EDTA and 5 % DMSO. Reaction products were analysed using a Caliper LabChip LC3000 instrument and peak height was used to calculate percentage conversion of substrate to product.
# For compound response testing, a 12 point compound concentration range was used. Compounds were acoustically dosed (Echo 555; Labcyte) into assay-ready plates using 11 half log intervals from 100 μM to […] plus a 12th point at 0.01 μM. Each well was backfilled with the required volume up to 120 nL of 100% DMSO to ensure a final 1% v/v DMSO concentration in the assay. In addition to the compound test wells, each plate carried maximum and minimum controls. Staurosporine at 10 μM was used to inhibit CDK2 activity for the minimum control. As a maximum control, 120 nL pure DMSO was added to the wells. Each plate contained at least 11 randomly distributed maximum and minimum controls. After the addition of compounds to the assay plates, the assay was performed as detailed above. Percentage conversion of substrate to product was used to calculate the effect of each compound on the kinase activity of CDK2/cyclinE. Enzyme inhibition model 3, non-linear curve fit analysis within OriginLab™ software was used to fit dose response curves and estimate the […]
# concentration of compound required to reduce the enzyme activity to 50% of the conversion calculated from an average of the maximum controls.
# Cell-based ELISA (Cellisa) for HSP72 expression
# To follow HSP72 protein expression, a product of HSF1 transcriptional activity, Cellisa was developed. Cells (5-8x10^4cells/ml) were seeded into 96-well plates and incubated at 37 °C for 48 h.
# Compounds were then added at a range of concentrations and incubated for 1 h before addition of 17-AAG (250 nM). Cells were then incubated for 18 h. The medium was removed and cells were fixed with fixing solution (4% paraformaldehyde, 0.3% TritonX-100 in PBS) for 30 min at 4 °C. The plates were then washed with 0.1% Tween-20/deionised water before blocking with 5% milk for 30 min at 37 °C. After washing the plates, HSP72 antibody (SPA-810, Enzo Life) was added for 1.5 h at 37 °C.
# Following 4 x washes, the plates were incubated with europium-labelled anti-mouse antibody (0.6ug/ml) in Delfia assay buffer (Perkin Elmer) for 1 h at 37 °C. After washing the plates, Delfia enhancement solution was added, shaken for 10 min before reading in the Envision plate reader (Perkin-Elmer) with excitation at 340 nm and emission at 615 nm. The plates were washed again before protein determination using the BCA assay. The europium counts were normalised for the amount of protein in each well. The 50% inhibitory concentration value of the compound was then calculated and presented. […]
# [6] = molecular target: CDK1/cyclin B (Homo sapiens, UniProt P06493); test: EMD Millipore (Eurofins) CDK panel; settings: read-out: CDK1/cyclin B IC50; EMD Millipore screening panel, N = 1
# Procedure: Eurofins CDK panel assay conditions
# (§4) CDK1/cyclinB (h) is incubated with 8 mM MOPS pH 7.0, 0.2 mM EDTA, 0.1 mg/mL histone H1, 10 mM MgAcetate and [9-33P]-ATP (specific activity approx. 500 cpm/pmol, concentration as required). The reaction is initiated by the addition of the MgATP mix. After incubation for 40 minutes at room temperature, the reaction is stopped by the addition of 3% phosphoric acid solution. 10 μL of the reaction is then spotted onto a P30 filtermat and washed three times for 5 minutes in 75 mM phosphoric acid and once in methanol prior to drying and scintillation counting.
# (§5) CDK2/cyclinE (h) is incubated with 8 mM MOPS pH 7.0, 0.2 mM EDTA, 0.1 mg/mL histone H1, 10
# (§6) CDK3/cyclinE (h) is incubated with 8 mM MOPS pH 7.0, 0.2 mM EDTA, 0.1 mg/mL histone H1, 10 mM Mg Acetate and [9-33P]-ATP (specific activity approx. 500 cpm/pmol, concentration as
# [7] = molecular target: T5, CDK2/cyclinE; test: EMD Millipore (Eurofins) CDK panel; settings: read-out: CDK2/cyclin E IC50; EMD Millipore screening panel, N = 1
# Procedure: Eurofins CDK panel assay conditions
# as §4, §5, §6
# [8] = molecular target: CDK3/cyclin E (Homo sapiens, UniProt Q00526); test: EMD Millipore (Eurofins) CDK panel; settings: read-out: CDK3/cyclin E IC50; EMD Millipore screening panel, N = 1
# Procedure: Eurofins CDK panel assay conditions
# as §4, §5, §6
# [9] = test system: HSF1-stress pathway; test: ArrayScan HSP72 protein assay (HSF1-stress pathway inhibition, 17-AAG induced)
# Procedure: To discover inhibitors of the HSF1-stress pathway, we employed an automated cellular imaging and analysis method (ArrayScan™) that quantifies the ability of a compound to suppress the expression of the HSF1-mediated inducible HSP70 isoform, HSP72.
# U2OS cells (1500 per well) were plated in 40 μL of DMEM media (containing 10% fetal calf serum and 2 mM Glutamax T-1) in costar 384-well plates and left overnight at 37 °C and 5% CO2 to adhere.
# treatment with compound, all wells except min wells were dosed with 17AAG diluted in DMSO (10
# °C and 5% CO2. The following day the cells were fixed by addition of 20 μL/well of 12% formaldehyde with 1:1700 Hoechst in PBS for 10 min at room temperature. The fixative was decanted and the wells washed once with 50 μL of phosphate buffer saline (PBS).The PBS was subsequently aspirated, and the cells were permeabilized by addition of 20 μL/well of PBS 0.3% Triton X-100 for 20 min at room temperature. The wells were then washed with 80 μL of PBS prior to the addition of 20 μL of combined primary and secondary antibodies diluted in PBS (1:10 000 mouse anti-Hsp72
# 11001 molecular probes), for 2 h at room temperature. The wells were then washed with 50 μL of PBS. Finally, 50 μL of PBS was added to each well, and the plates were sealed ready to analyze.
# Analysis was carried out using a Cellomics Arrayscan VTI instrument and the Cellomics Arrayscan Compartmental Analysis algorithm to measure cellular levels of HSP72.
# 100 μM to 0.1 μM plus a 12th point at 0.01 μM. Each well was backfilled with the required volume up to 120 nL of 100% DMSO to ensure a final 1% v/v DMSO concentration in the assay. In addition to the compound test wells, each plate carried maximum and minimum controls. Staurosporine at 10 μM was used to inhibit CDK2 activity for the minimum control. As a maximum control, 120 nL pure DMSO was added to the wells. Each plate contained at least 11 randomly distributed maximum and minimum controls. After the addition of compounds to the assay plates, the assay was performed as detailed above. Percentage conversion of substrate to product was used to calculate the effect of each compound on the kinase activity of CDK2/cyclinE. Enzyme inhibition model 3, non-linear curve fit analysis within OriginLab™ software was used to fit dose response curves and estimate the
# T4 sequence (P50750 whole entry): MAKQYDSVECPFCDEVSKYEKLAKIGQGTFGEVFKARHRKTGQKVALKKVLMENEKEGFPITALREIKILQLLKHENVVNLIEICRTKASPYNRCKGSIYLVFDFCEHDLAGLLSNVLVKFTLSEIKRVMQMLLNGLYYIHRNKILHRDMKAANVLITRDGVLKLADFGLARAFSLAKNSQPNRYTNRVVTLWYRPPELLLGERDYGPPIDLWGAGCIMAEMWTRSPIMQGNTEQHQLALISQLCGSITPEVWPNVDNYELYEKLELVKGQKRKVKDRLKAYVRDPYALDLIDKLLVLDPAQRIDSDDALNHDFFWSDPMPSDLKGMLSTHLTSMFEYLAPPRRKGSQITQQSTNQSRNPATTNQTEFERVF
# T4 sequence (O60563 whole entry partner): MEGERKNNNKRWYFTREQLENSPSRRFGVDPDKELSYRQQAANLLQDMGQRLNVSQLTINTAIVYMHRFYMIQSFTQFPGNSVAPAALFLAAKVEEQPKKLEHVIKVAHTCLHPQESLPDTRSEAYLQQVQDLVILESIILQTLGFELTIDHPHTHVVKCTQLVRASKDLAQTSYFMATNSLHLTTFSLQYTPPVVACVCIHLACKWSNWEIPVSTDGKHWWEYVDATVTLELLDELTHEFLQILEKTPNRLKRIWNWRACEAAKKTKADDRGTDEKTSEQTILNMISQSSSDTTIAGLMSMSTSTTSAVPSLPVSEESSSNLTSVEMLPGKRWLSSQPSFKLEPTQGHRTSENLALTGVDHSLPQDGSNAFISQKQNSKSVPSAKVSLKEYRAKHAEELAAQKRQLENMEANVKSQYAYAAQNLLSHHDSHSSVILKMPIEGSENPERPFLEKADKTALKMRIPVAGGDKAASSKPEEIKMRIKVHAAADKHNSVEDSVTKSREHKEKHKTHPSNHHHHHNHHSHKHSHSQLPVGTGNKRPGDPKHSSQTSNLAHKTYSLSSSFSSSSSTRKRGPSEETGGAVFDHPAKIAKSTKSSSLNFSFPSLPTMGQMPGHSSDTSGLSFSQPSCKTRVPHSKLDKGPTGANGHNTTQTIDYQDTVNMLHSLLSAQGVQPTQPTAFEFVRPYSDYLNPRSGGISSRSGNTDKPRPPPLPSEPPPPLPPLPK
# CDK1/cyclin B, sequence (P06493 whole entry): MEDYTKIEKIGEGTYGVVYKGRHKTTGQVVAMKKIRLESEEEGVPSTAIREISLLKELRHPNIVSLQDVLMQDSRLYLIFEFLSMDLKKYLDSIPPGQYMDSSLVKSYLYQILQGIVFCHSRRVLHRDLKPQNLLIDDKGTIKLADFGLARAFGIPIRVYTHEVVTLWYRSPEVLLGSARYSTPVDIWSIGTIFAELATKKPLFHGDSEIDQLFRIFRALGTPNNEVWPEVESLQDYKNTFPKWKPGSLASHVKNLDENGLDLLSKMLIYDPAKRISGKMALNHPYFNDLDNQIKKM
# CDK1/cyclin B, sequence (P14635 whole entry partner): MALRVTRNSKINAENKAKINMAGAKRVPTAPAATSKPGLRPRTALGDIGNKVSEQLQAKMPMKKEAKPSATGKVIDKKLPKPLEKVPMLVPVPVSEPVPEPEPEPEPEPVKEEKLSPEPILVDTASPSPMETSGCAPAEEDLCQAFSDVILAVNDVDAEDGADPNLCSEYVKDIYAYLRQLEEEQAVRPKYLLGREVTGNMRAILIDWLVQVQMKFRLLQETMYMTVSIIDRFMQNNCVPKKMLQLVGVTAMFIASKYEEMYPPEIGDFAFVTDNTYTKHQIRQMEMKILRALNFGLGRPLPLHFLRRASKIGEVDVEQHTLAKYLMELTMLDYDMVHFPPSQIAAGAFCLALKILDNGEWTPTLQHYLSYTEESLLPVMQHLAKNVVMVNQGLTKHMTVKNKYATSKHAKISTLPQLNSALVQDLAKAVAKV
# T1 sequence (Q00535 whole entry): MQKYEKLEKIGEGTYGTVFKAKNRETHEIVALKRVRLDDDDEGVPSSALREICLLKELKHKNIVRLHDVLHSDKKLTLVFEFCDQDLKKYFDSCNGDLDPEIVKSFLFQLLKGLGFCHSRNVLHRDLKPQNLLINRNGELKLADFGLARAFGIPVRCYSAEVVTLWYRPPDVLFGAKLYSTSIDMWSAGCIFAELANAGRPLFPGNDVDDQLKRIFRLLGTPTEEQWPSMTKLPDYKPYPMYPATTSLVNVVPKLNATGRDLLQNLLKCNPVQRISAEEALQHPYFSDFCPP
# T1 sequence (Q15078 whole entry partner): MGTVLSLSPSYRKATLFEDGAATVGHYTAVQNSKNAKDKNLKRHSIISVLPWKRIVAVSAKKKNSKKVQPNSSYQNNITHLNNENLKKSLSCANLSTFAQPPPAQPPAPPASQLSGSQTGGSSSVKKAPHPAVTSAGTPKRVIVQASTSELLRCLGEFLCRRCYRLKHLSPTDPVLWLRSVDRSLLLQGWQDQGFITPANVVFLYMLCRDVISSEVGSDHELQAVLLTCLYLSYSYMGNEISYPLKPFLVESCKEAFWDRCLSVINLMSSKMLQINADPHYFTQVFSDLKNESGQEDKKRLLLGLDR
# T3 sequence (P50613 whole entry): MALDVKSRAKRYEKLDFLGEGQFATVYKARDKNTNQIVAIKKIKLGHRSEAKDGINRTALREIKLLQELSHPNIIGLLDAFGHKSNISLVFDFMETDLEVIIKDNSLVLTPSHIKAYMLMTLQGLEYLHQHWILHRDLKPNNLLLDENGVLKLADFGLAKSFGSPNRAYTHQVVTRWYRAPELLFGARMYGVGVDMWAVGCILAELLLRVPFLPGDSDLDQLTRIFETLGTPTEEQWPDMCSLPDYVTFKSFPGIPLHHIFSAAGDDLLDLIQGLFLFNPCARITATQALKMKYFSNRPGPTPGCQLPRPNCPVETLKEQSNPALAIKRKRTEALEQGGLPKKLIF
# T3 sequence (P51946 whole entry partner): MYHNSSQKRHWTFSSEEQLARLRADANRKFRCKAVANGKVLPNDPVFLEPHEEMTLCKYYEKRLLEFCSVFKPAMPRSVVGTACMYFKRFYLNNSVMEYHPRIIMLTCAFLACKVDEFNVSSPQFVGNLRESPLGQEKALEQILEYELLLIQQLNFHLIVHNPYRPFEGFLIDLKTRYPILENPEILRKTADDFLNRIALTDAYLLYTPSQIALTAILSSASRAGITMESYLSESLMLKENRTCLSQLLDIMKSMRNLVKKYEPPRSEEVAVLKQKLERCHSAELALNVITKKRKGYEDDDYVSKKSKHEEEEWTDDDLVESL
# T3 sequence (P51948 whole entry partner): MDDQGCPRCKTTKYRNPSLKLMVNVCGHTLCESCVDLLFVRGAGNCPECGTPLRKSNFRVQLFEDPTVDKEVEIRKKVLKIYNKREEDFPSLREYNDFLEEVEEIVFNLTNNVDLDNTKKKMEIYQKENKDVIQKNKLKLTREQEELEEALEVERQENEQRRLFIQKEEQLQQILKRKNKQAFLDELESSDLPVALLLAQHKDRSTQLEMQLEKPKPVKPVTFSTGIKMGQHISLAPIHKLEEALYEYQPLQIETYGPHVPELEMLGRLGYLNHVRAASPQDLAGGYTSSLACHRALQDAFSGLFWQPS
# T2 sequence (Q00534 whole entry): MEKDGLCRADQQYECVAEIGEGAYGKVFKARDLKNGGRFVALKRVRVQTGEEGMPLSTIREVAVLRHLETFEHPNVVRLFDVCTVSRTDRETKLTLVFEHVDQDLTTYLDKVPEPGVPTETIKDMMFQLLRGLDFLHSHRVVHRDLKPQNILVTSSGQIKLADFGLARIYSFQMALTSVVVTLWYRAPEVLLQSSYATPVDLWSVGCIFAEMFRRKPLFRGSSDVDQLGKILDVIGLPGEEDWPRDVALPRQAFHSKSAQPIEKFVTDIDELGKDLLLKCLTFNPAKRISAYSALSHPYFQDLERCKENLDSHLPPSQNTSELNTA
# T2 sequence (P30281 whole entry partner): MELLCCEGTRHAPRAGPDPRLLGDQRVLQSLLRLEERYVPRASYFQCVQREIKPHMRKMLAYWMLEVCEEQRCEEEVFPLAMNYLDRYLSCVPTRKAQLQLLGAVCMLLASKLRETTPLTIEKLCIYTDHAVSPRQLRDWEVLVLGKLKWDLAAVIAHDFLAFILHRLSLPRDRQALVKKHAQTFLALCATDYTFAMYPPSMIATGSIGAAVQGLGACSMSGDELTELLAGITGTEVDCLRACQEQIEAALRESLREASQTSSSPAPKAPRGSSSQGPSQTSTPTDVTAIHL
smiles,measurement,setting,value
CN(C)CCOc1ccc(Nc2cc(-n3cnc4ccccc43)ncn2)nc1 [Compound 3],IC50,[1],610 nM
same,IC50,[2],1300 nM
same,IC50,[3],1100 nM
same,IC50,"[4]; EMD Millipore screening panel, N = 1",14 nM
same,ratio of activity CDK9/CyclinT1,"[4]; ratio between CDK2/7/9, CDK9 = 1, EMD Millipore Screening Panel",1
same,IC50,"[5]; biochemical, CDK2/cyclinE, average of two determinations",580 nM
same,fold more active against CDK2 compared with phenyl compound 2,[5]; relative to compound 2,35 fold
same,IC50,[6],1800 nM
same,IC50,[7],2800 nM
same,IC50,[8],3.5 µM
same,IC50,"[9]; Homo sapiens, U2OS, read-out: HSF1 IC50",80 nM
same,fold more potent in the HSF1-stress pathway assay compared with phenyl compound 2,[9]; relative to compound 2,approximately 15 fold
